Test results reported in US4657897A, “N^6 -substituted adenosines for treating pain” (Warner-Lambert Company, priority 1985, dated 1987).

Assays:
[1] = Mouse Activity and Screen Test (MAST), inhibition of locomotion (LI); assay type: in vivo, mouse (Swiss-Webster, male); conditions: one hour data
Experimental: (§1) Treatments are administered intraperitoneally one hour prior to testing. […] Compounds are dissolved or suspended in 0.2% Methocel. Control animals are injected with Methocel.
Immediately following the screen test, the final phase of testing is initiated by placing each group of three mice in one actophotometer (Life Sciences, 22, 1067-1076, 1978). The actophotometer consists of a cylindrical chamber whose center is occupied by another cylinder which contains the illumination for six photocells located on the perimeter of the chamber. Six light-beam interruptions equal one count. Locomotor activity is recorded by computer at ten minute intervals for 60 minutes.
(§2) The compounds are identified in the Examples.

[2] = Antihypertensive evaluation (AHP3), aortic blood pressure and heart rate in conscious rats; assay type: in vivo, rat
Experimental: This test procedure is described in the following paragraphs.
The continuous monitoring of pulsatile blood pressure (BP) from unrestrained conscious rats surgically equipped witth polyethylene cannulas was accomplished by means of a computer assisted data capture scheme (CADCS). The basic elements of the methodology are the cannulation procedure and the CADCS.
Rats were anesthetized with Telazol (1:1 tiletamine HCl and zolazepam HCl); 20-40 mg/kg IM and the descending aorta exposed via a midline incision. Cannulas fabricated from polyethylene tubing were inserted into the aorta via an undersized puncture hole below the renal arteries. The puncture hole was made by a 23 G disposable needle with a section of the aorta clamped off above and below the puncture site. The cannulas, consisting of a PE100 (0.86 mm ID) body and a PE50 (0.58 mm ID) tip, were attached to a trocar, inserted through the psoas muscle, and passed subcutaneously along the midline of the back and externalized between the ears. The cannulas were anchored to the psoas muscle and between the scalulae (3-0 green braided suture). The midline incision was closed in two steps (muscle first, skin second) using continuous over-and over sutures (4-0 chronic). Each rat was then given penicillin 30,000 units subcutaneously (Penicillin G Procaine Sterile Suspension).
The rats were fitted with a harness-spring-swivel assembly designed to protect the cannula and to provide the rat relative freedom of movement. The harnesses were fabricated from nylon hook and loop tape cemented to a metal plate to which spring wires (18-8 stainless steel), were attached to brass swivels. Each polyethylene cannula was channeled through a spring and connected through a swivel to a pressure transducer (Model P23Gb; Statham Instruments; Hato Rey, Puerto Rico) and an infusion pump (Sage model 234-7; Orion Research, Cambridge, MA) by means of PE100 tubing. While on test, each rat received a continuous slow infusion of heparinized saline solution (approximately […] or 40 units of heparin per 24 hour period) to prevent clot formation. Additional "flushes" of the cannula with heparinized saline were carried out when the aortic pulse pressure (systolic minus diastolic) was less than 25 mm Hg.
The pulsatile blood pressure and heart rate of each of 32 rats was monitored every minute by means of two in-laboratory microcomputers communicating directly with a data concentrator computer. The data were first stored on the data concentrator disk and then transferred to a magnetic tape for analysis and report generation by the main research computer. The overall scheme involved modulating the primary signal from the pressure transducer, generating the primary data set of the one-minute values for systolic, diastolic, and mean blood pressures and heart rate by the in-lab microcomputer and the storage, analysis, and report generation by the main reserach computer.
The transducers were connected to analog signal conditioning modules. The modules provided a regulated excitation voltage for the transducers, amplification as required to interface the microprocessors and an active low pass filter to compensate for the pressure wave form distortion produced by the flexible, fluid filled, narrow cannula. The distortion was 22-26 Hz and this provided a reliable estimate of both systolic and diastolic blood pressure.
The microcomputers (one for each of two groups of 16 rats) were connected to the input components through the module interface units, an analog-to-digital converter for the pressure wave form signal and the digital inputs for the dose and event marker switches. The microcomputer controlled the sequential acquisition of data from the modular interface units through an internal synchronous time-of-day clock/time base generator. Utilizing the time base generator as a reference, the blood pressure values and the marker switch status for each of the 32 stations were sampled every ten msec. […]

rat heart = experiment: Coronary blood flow (PCS2A), isolated perfused rat heart; design: species or system rat (male); conditions: read-out: effect on heart rate (HR)
Experimental: Male rats (400-600 gms) are pretreated with Na heparin 2000 units and anesthetized with Na pentobarbital (50 mg/kg) administered intraperitoneally. Once anesthetized, the rat heart is rapidly excised, the ascending aorta fitted to the aortic perfusion cannula, and secured with a ligature. The coronary arteries are perfused initially at a rate of about 15 ml/min for two to three minutes, afterwhich they are perfused at constant pressure of 70 mm Hg and temperature of 37° C. The electrocardiogram (ECG) is recorded using two platinum electrodes positioned at the base and apex of the left ventricle. A second heart is excised, cannulated, and perfused by the same method outlined above. Both hearts are tested in parallel. The standard physiological salt solution (PSS) is a modified Krebs-Hanseleit bicarbonate buffer of the following composition in mM concentration: NaCl, 127; NaHCO3, 25; dextrose, 5.5; Na Pyruvate, 2.0; KCl, 4.7; MgSO4, 1.1; KH 2PO4, 1.2; CaCl2.2H2 O, 2.5; CaNa2 EDTA, 0.05.
A 30-minute stabilization period is observed before starting the test protocol.
The microprocessor control system is a servo mechanism which permits coronary perfusion pressure (CPP) and drug concentration to be maintained constant independent of changes in coronary flow. The level at which CPP and drug concentration are maintained can be changed by commands communicated through the microprocessor keyboard. Dose-response curves are carried out by perfusing concentrated drug solution (DC) at rates proportional to total coronary flow (CFT). Drug concentrations are increased by proportionate increases in the rate of DC infusion over CFT via the microprocessor keyboard. The proportional flow rates for DC:CFT is about 0.0002:1 at the low end and 0.02:1 at the high end of the dose-response curve. Dose-response curves encompassing at least two log doses are carried out by preparing two DCs with a concentration difference of 1:100. Following the first dose range of two log doses, the DC are switched, proportional pumping rate adjusted, and the dose-responsecurve continued for another two log doses. The standard dose-response curve is carried out in one-half log dose increments starting at a subthreshold dose and ending at a dose which produces near maximal response in activity. Standard reference compounds are tested over the range of 10^-9 to 10^-6 M.
Measurements are for heart rate (HR) and coronary flow (CF). Units are: HR, beats/minute (bpm) and CF, milliliters/minute (ml/min). HR is calculated from the ECG strip chart recording and CF is calculated by recording analog outputs from pumps 1 and 2. Outputs from pump #1=CFT and the output from pump #2=CF for heart B (CFB). CF for heart A (CFA) is calculated (CFT -CFB =CFA).

[3] = Mouse Activity and Screen Test (MAST), screen test failure (ST); assay type: in vivo, mouse (Swiss-Webster, male); conditions: Mus musculus, ip, 1 h, read-out: MAST ST LAD
Experimental: as §1, §2

With `OC[C@H]1O[C@@H](n2cnc3c(NCC(c4ccccc4)c4ccccc4)ncnc32)[C@H](O)[C@@H]1O` [Example 1, N^6-(2,2-Diphenylethyl)adenosine] the “Inhibition of mouse locomotor activity” value ([1]; 10 mg/kg intraperitoneal) was 92%, the “Inhibition of mouse locomotor activity” value ([1]; 30 mg/kg intraperitoneal) was 93% and the “Inhibition of mouse locomotor activity” value ([1]; 100 mg/kg intraperitoneal) was 94%. The “change in MAP (decrease)” value ([2]; 1 mg/kg) was 16%, the “change in heart rate (HR increase)” value ([2]; 1 mg/kg) was less than 20% and the “change in MAP (decrease)” value ([2]; 3 mg/kg) was 20%. For the same compound, the “change in heart rate (HR increase)” value ([2]; 3 mg/kg) was less than 20%, the “change in MAP (decrease)” value ([2]; 10 mg/kg) was 20% and the “change in heart rate (HR increase)” value ([2]; 10 mg/kg) was less than 20%. For the same compound, the “change in MAP (decrease)” value ([2]; 30 mg/kg) was 35%, the “change in heart rate (HR increase)” value ([2]; 30 mg/kg) was less than 20% and the activation at 0.001 µM (rat heart) was 1%. For the same compound, the activation at 0.003 µM (rat heart) was 3%, the activation at 0.01 µM (rat heart) was -1% and the activation at 0.1 µM (rat heart) was -13%. It also gave an activation at 1 µM (rat heart) of -47% and a minimal effective dose [3] greater than 100 mg/kg.
